From patent publication EP2002836B1, “Cyclocondensed azaindoles active as kinase inhibitors” (Nerviano Medical Sciences S.r.l., priority 2007, dated 2008)

Key:
[1] = target: AKT3 (Homo sapiens, UniProt Q9Y243); test: Biochemical assay for inhibitors of AKT3 kinase activity (33P trans-phosphorylation, Dowex resin); conditions: 1 nM enzyme, 180 microM ATP, 28.5 microM peptide substrate; read-out: AKT3 IC50 (µM) Biochem assay
Experimental: (§1) The N-terminal GST fusion proteins used for the assays were prepared according to the methods described in Kumar, C. C. Biochem. Biophys. ACTA 2001, 1526, 257-268, and in Alessi, D. R.. Biochem. J. 1998 331, 299-308.
(§2) The in vitro kinase inhibition assay was conducted in the same way as described for AKT1. The kinase assay was run with a final enzyme concentration of 1 nM, in the presence of 180 microM ATP, 0.88 nM ^33P-γ-ATP and 28.5 microM substrate, a carboxy-terminally biotinylated peptide of the following sequence: ARKRERTYSFGHHA-biotin. The peptide was obtained in batches of >95% peptide purity from PRIMM labs Inc. (Boston MA, USA).

[2] = target: AKT1 (Homo sapiens, UniProt P31749); test: Biochemical assay for inhibitors of AKT1 kinase activity (33P trans-phosphorylation, Dowex resin); set-up: made in house; conditions: 5 nM enzyme, 132 microM ATP, 30 microM peptide substrate; read-out: AKT1 IC50 (µM) Biochem assay
AKT1, sequence (P31749 whole entry): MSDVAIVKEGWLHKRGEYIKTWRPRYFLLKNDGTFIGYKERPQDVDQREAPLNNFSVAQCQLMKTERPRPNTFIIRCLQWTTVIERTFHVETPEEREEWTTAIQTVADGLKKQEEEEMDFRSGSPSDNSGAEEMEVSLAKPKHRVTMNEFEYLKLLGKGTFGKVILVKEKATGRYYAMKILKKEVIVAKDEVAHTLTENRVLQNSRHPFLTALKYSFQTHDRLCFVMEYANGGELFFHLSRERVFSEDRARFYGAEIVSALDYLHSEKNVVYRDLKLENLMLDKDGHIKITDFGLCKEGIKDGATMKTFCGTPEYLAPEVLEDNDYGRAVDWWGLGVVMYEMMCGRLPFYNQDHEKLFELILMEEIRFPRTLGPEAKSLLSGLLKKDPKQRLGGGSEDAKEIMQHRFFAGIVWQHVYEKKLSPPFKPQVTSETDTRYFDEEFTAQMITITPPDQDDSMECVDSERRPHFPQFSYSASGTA
Experimental: as §1
The inhibitory activity of putative kinase inhibitors and the potency of selected compounds were determined using a trans-phosphorylation assay.
A specific substrate was incubated with the kinase in appropriate buffer conditions in the presence of ATP traced with ^33P-γ-ATP (gamma phosphate-labeled, Redivue™ Code Number AH9968, 1000-3000Ci/mmole, Amersham Biosciences Piscataway, NJ, USA), optimal cofactors and test compound.
At the end of the phosphorylation reaction, more than 98% cold and radioactive ATP were captured by an excess of Dowex ion exchange resin. The resin was allowed to settle to the bottom of reaction wells by gravity. Supernatant, containing substrate peptide, was subsequently withdrawn and transferred into a counting plate, and radioactivity (corresponding to phosphate incorporated into peptide) was evaluated by β-counting.
Kinase buffer was composed of 50 mM TRIS pH 7.5 containing10 mM MgCl2, 1 mM DTT, 3 microM Na3VO4, and 0.2 mg/mL BSA. 3X KB is buffer of the same composition and pH as KB, but with three times the concentration of each component. iii.Assay conditions (final concentrations) for AKT1.
as §2, with “The” for “The in vitro kinase inhibition assay was conducted in the same way as described for AKT1. The”, “5” for “1”, “132” for “180”, “30” for “28.5”
The "test" mixture of 15 microL consisting of: • 1) 5 µl/well of 3x Enzyme mix (done in Kinase Buffer 3X), • 2) 5 µl/well of 3x substrate and ATP mix (done in ddH2O), together with ^33P-γ-ATP, • 3) 5 µl/well of 3x test compounds (diluted into ddH2O - 3% DMSO).
For % inhibition studies, dilution plates at 1 mM, 10 microM and 100 microM were prepared in 100% DMSO, then diluted to 3X final desired concentration (30, 3 and 0.3 microM) in ddH2O, 3% DMSO. A Multimek 96 (Beckman Coulter, Inc. 4300 N. Harbor Boulevard, P.O. Box 3100 Fullerton, CA 92834-3100 USA) was used for compound pipetting into test plates.
For IC50 determination, starting solutions of 30 microM compound in 3% DMSO were derived from 1 mM/100% DMSO stock solutions. These 30 microM starting solutions were used for generation of a further 9 serial 1/3 dilutions in ddH20, 3% DMSO, so as to generate a 10-point dilution curve at 3X the final assay concentration. Serial dilution was conducted in 96-well plates using a Biomek 2000 (Beckman Coulter) system. Dilution curves of 7 compounds/plate were prepared, and each plate also included a 10-point dilution curve of Staurosporine, as well as several negative and positive control wells.
384-well plates, V bottom (test plates) are prepared with 5 µl of the compound dilution (3X) and then placed onto a PlateTrak 12 robotized station (Perkin Elmer; the robot has one 384-tips pipetting head for starting the assay plus one 96-tips head for dispensing the resin) together with one reservoir for the Enzyme mix (3X) and one for the ATP mix (3X).
At the start of the run, the robot aspirates 5 µl of ATP mix, makes an air gap inside the tips (3 µl) and aspirates 5 µl of AKT mix. The following dispensation into the plates allows the kinase reaction to start upon 3 cycles of mixing, done by the robot itself.
The robot incubates the plates for 60 minutes at room temperature, and then stops the reaction by pipetting 70 µl of dowex resin suspension into the reaction mix. Three cycles of mixing are done immediately after the addition of the resin.
Another mixing cycle is performed after all the plates are stopped, this time using normal tips: the plates are then allowed to rest for about one hour in order to maximize ATP capture. […]

[3] = target: T1, AKT2 (Homo sapiens, UniProt P31751); test: Biochemical assay for inhibitors of AKT2 kinase activity (33P trans-phosphorylation, Dowex resin); conditions: 10 nM enzyme, 396 microM ATP, 8.5 microM peptide substrate; read-out: AKT2 IC50 (µM) Biochem assay
T1 construct: made in house
T1 sequence (P31751 whole entry, species assumed): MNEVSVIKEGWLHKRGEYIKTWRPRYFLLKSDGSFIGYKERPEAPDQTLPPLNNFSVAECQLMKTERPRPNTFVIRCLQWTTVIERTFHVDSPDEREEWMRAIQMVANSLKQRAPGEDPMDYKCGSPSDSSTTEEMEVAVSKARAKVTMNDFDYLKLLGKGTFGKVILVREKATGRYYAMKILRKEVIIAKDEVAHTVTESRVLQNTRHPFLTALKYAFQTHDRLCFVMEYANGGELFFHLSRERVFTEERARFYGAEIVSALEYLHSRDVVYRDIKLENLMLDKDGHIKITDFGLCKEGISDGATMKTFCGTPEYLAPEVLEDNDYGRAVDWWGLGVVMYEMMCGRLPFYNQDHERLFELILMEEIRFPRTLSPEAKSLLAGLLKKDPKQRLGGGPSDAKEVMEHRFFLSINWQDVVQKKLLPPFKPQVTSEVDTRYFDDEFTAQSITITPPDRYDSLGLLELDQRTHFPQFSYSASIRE
Experimental: as §1
as §2, with “of 10” for “of 1”, “of 396” for “of 180”, “and 8.5” for “and 28.5”

AKT3, sequence (Q9Y243 2-479): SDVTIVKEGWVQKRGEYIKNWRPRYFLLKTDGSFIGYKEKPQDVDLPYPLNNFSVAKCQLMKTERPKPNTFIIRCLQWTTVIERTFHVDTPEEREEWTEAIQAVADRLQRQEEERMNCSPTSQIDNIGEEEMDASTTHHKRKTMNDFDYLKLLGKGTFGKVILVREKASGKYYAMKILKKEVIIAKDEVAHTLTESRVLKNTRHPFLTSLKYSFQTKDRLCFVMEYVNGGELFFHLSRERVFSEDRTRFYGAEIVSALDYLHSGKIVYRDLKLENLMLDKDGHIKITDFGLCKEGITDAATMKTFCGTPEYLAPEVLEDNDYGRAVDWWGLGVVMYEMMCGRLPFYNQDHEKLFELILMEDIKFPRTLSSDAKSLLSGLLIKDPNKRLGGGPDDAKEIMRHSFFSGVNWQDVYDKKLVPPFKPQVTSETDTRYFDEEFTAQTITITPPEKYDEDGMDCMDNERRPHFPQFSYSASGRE

Row | SMILES | IC50 [1] [µM] | IC50 [2] [µM] | IC50 [3] [µM]
1 | NC[C@H](Cc1ccccc1)NC(=O)c1cc2c3c(nccc3c1)NC2 [Cpd. 7, N-[(1S)-2-amino-1-benzylethyl]-1,2-dihydropyrrolo[4,3,2-ij]isoquinoline-4-carboxamide] | 0.717 | 0.132 | 0.797
2 | O=C(N[C@H](CN1CCCC1)c1ccccc1)c1cc2c3c(nccc3c1)NC2 [Cpd. 8, N-[(1S)-1-phenyl-2-pyrrolidin-1-ylethyl]-1,2-dihydropyrrolo[4,3,2-ij]isoquinoline-4-carboxamide] | 1.06 | 0.431 | 1.86
